According to article PMC10656490, “Sequence-based prediction of the intrinsic solubility of peptides containing non-natural amino acids” (Nature Communications, 2023):
Like-named read-outs stand apart in the source and are kept apart here. Where a SMILES comes first, the peptide text is derived from it. [ ]: non-standard residue; d: D form. Cha = N[C@@H](CC1CCCCC1)C(=O)O; Cit = NC(=O)NCCC[C@H](N)C(=O)O; Nle = CCCC[C@H](N)C(=O)O; Aib = CC(C)(N)C(=O)O

How the values were obtained:
[1] = Ammonium sulphate (AMS) precipitation relative solubility assay (18 A variants); format: physicochemical
Procedure: (§1) Relative solubility was measured using a recently developed PEG precipitation assay. For all PYY variants the standard assay worked well, and no changes had to be implemented (Fig. 2a). […] Moreover, to ensure that the results stemming from the AMS assay are consistent and reliable, we performed the 18 A experiments twice independently on different days. The results confirmed that they are indeed replicable, and we were therefore confident to use them for the validation of our approach (Supplementary Fig. 3). […] Even at final concentrations of 0.33 mg/mL (instead of 1 mg/mL) most variants remained insoluble. We used ultracentrifugation to determine the relative solubilities of the GLP-1 variants (Table 3). To confirm the reliability of this method we replicated the results on a different day with the same stock solutions (Supplementary Fig. 4).
(§2) Aliquots of 1 mg were prepared from the purified and lyophilised stocks. […] Briefly, a precipitant is titrated in increasing concentration to a fixed concentration of protein to induce precipitation of the protein. The samples are incubated for 48 h at 4° after mixing. The samples are centrifuged and the remaining protein concentration is measured in the supernatant using a plate reader. PYY and 18 A variants were dissolved in 10 mM citrate 10 mM phosphate buffer at pH 7 for a final concentration of 3 mg/mL. The assay was run with 50% 6000 PEG for PYY and with 3.8 M AMS for 18 A. To improve throughput, a multichannel robot was employed to measure several peptides at once with the workflow being kept the same as described previously. […] 120 µL of each sample were centrifuged using an OptimaTLX Ultracentrifuge and spinning for 30 min at 500,000 g at 4 °C. The supernatant was removed, and the peptide concentration was measured using a NanoDrop.

[2] = Solubility by ultracentrifugation (GLP-1 variants); format: physicochemical; conditions: for solubility: 10 mM citrate 10 mM phosphate buffer, pH 7, GLP-1 variants, 2 mg/mL in 10 mM citrate 10 mM phosphate pH 7, 30 min 500,000 g 4 °C
Procedure: as §1, §2

[3] = 18A variants, precipitation midpoint, second run, Figure S3
[4] = source data Supplementary Fig. 4, GLP-1 variants, 2 stands where Table 3 prints S, in mg/mL

| Compound | PEG1/2 ([1]; 18A variants, Figure 3b) | Second Run [1, 3] | other results |
| --- | --- | --- | --- |
| CC(=O)N[C@@H](CC(=O)O)C(=O)N[C@@H](Cc1c[nH]c2ccccc12)C(=O)N[C@@H](Cc1ccccc1)C(=O)NC(C)(C)C(=O)N[C@@H](C)C(=O)N[C@@H](Cc1ccccc1)C(=O)N[C@@H](Cc1ccc(O)cc1)C(=O)N[C@@H](CC(=O)O)C(=O)N[C@@H](CCCCN)C(=O)N[C@H](C(=O)N[C@@H](C)C(=O)N[C@@H](CCC(=O)O)C(=O)N[C@@H](CCCCN)C(=O)N[C@@H](CC1CCCCC1)C(=O)N[C@@H](CCCCN)C(=O)N[C@@H](CCC(=O)O)C(=O)N[C@@H](C)C(=O)N[C@@H](Cc1ccccc1)C(N)=O)C(C)C [Aib, Cha] (Ac-DWF[Aib]AFYDKVAEK[Cha]KEAF-NH2) | 1.604 | 1.21 | – |
| CC(=O)N[C@@H](CC(=O)O)C(=O)N[C@@H](Cc1c[nH]c2ccccc12)C(=O)N[C@@H](CC1CCCCC1)C(=O)N[C@@H](CCCCN)C(=O)N[C@@H](C)C(=O)N[C@@H](Cc1ccccc1)C(=O)N[C@@H](Cc1ccc(O)cc1)C(=O)N[C@@H](CC(=O)O)C(=O)N[C@@H](CCCCN)C(=O)N[C@H](C(=O)N[C@@H](CC1CCCCC1)C(=O)N[C@@H](CCC(=O)O)C(=O)N[C@@H](CCCCN)C(=O)N[C@@H](Cc1ccccc1)C(=O)N[C@@H](CCCCN)C(=O)N[C@@H](CCC(=O)O)C(=O)N[C@@H](C)C(=O)N[C@@H](Cc1ccccc1)C(N)=O)C(C)C [Cha, Cha] (Ac-DW[Cha]KAFYDKV[Cha]EKFKEAF-NH2) | 0 | 0 | – |
| CCCC[C@H](NC(=O)[C@H](CCC(=O)O)NC(=O)[C@H](CCCCN)NC(=O)[C@H](Cc1ccccc1)NC(=O)[C@H](CCCCN)NC(=O)[C@H](CCC(=O)O)NC(=O)[C@H](C)NC(=O)[C@@H](NC(=O)[C@H](CCCCN)NC(=O)[C@H](CC(=O)O)NC(=O)[C@H](Cc1ccc(O)cc1)NC(=O)[C@H](Cc1ccccc1)NC(=O)[C@H](CC1CCCCC1)NC(=O)[C@H](CCCCN)NC(=O)[C@H](Cc1ccccc1)NC(=O)[C@H](Cc1c[nH]c2ccccc12)NC(=O)[C@H](CC(=O)O)NC(C)=O)C(C)C)C(=O)N[C@@H](Cc1ccccc1)C(N)=O [Cha, Nle] (Ac-DWFK[Cha]FYDKVAEKFKE[Nle]F-NH2) | 0 | 0 | – |
| CCCC[C@H](NC(=O)[C@H](CCC(=O)O)NC(=O)[C@H](C)NC(=O)[C@@H](N)Cc1c[nH]cn1)C(=O)N[C@H](C(=O)N[C@@H](Cc1ccccc1)C(=O)N[C@H](C(=O)N[C@@H](CO)C(=O)N[C@@H](CC(=O)O)C(=O)N[C@H](C(=O)N[C@@H](CO)C(=O)N[C@@H](CO)C(=O)N[C@@H](Cc1ccc(O)cc1)C(=O)N[C@@H](CC(C)C)C(=O)N[C@@H](CCC(=O)O)C(=O)NCC(=O)N[C@@H](CCCNC(N)=O)C(=O)N[C@@H](C)C(=O)N[C@@H](C)C(=O)N[C@@H](CCCCN)C(=O)N[C@@H](CCC(=O)O)C(=O)N[C@@H](Cc1ccccc1)C(=O)N[C@H](C(=O)N[C@@H](C)C(=O)N[C@@H](Cc1c[nH]c2ccccc12)C(=O)N[C@@H](CC(C)C)C(=O)N[C@H](C(=O)N[C@@H](CCCCN)C(=O)NCC(=O)N[C@@H](CCCNC(=N)N)C(N)=O)C(C)C)[C@@H](C)CC)C(C)C)[C@@H](C)O)[C@@H](C)O [Compound 10] (H-HAE[Nle]TFTSDVSSYLEG[Cit]AAKEFIAWLVKGR-NH2; N-terminus assumed) | – | – | solubility ([2]; run 1, read-out: Run 1 solubility (peptide concentration in supernatant)): 150 µg/mL; solubility ([2]; run 2, read-out: Run 2 solubility (peptide concentration in supernatant)): 120 µg/mL; Ultracentrifugation ([2]; GLP1 variants, Figure 3c, in mg/mL): 0.1367; First Run [2, 4]: 0.15; Second Run [2, 4]: 0.1234 |
| CC(=O)N[C@@H](CC(=O)O)C(=O)N[C@@H](Cc1c[nH]c2ccccc12)C(=O)N[C@@H](Cc1ccccc1)C(=O)N[C@@H](CCCCN)C(=O)N[C@@H](C)C(=O)N[C@@H](Cc1ccccc1)C(=O)N[C@@H](Cc1ccc(O)cc1)C(=O)N[C@@H](CC(=O)O)C(=O)N[C@@H](CCCCN)C(=O)N[C@H](C(=O)N[C@@H](C)C(=O)N[C@@H](CCC(=O)O)C(=O)N[C@@H](CCCCN)C(=O)N[C@@H](Cc1ccccc1)C(=O)N[C@@H](CCCCN)C(=O)N[C@@H](CCC(=O)O)C(=O)N[C@@H](C)C(=O)N[C@@H](Cc1ccccc1)C(N)=O)C(C)C [Compound 11, reference compound] (Ac-DWFKAFYDKVAEKFKEAF-NH2) | – | – | PEG1/2 [1]: 1.626; Second Run [1]: 1.058 |
| CCCC[C@H](NC(=O)[C@@H](NC(=O)[C@H](CCCCN)NC(=O)[C@H](CC(=O)O)NC(=O)[C@H](Cc1ccc(O)cc1)NC(=O)[C@H](Cc1ccccc1)NC(=O)[C@H](C)NC(=O)[C@H](CCCCN)NC(=O)[C@H](Cc1ccccc1)NC(=O)[C@H](Cc1c[nH]c2ccccc12)NC(=O)[C@H](CC(=O)O)NC(C)=O)C(C)C)C(=O)N[C@@H](CCC(=O)O)C(=O)N[C@@H](CCCCN)C(=O)N[C@@H](Cc1ccccc1)C(=O)N[C@@H](CCCCN)C(=O)N[C@@H](CCC(=O)O)C(=O)N[C@@H](C)C(=O)N[C@@H](Cc1ccccc1)C(N)=O [Compound 13] (Ac-DWFKAFYDKV[Nle]EKFKEAF-NH2) | 1.618 | 0.923 | – |
| CC(=O)NCCCC[C@H](NC(=O)[C@@H](NC(=O)[C@H](CCCCN)NC(=O)[C@H](CC(=O)O)NC(=O)[C@H](Cc1ccc(O)cc1)NC(=O)[C@H](Cc1ccccc1)NC(=O)[C@H](C)NC(=O)[C@H](CCCCN)NC(=O)[C@H](Cc1ccccc1)NC(=O)[C@H](Cc1c[nH]c2ccccc12)NC(=O)[C@H](CC(=O)O)NC(C)=O)C(C)C)C(=O)N[C@@H](CCC(=O)O)C(=O)N[C@@H](CCCCN)C(=O)N[C@@H](Cc1ccccc1)C(=O)N[C@@H](CCCCN)C(=O)N[C@@H](CCC(=O)O)C(=O)N[C@@H](C)C(=O)N[C@@H](Cc1ccccc1)C(N)=O [Compound 14] (Ac-DWFKAFYDKVK(Ac)EKFKEAF-NH2) | 1.287 | 0.527 | – |
| CC(=O)N[C@@H](CC(=O)O)C(=O)N[C@@H](Cc1c[nH]c2ccccc12)C(=O)N[C@@H](Cc1ccccc1)C(=O)N[C@@H](CCCCN)C(=O)N[C@@H](C)C(=O)N[C@@H](Cc1ccccc1)C(=O)N[C@@H](Cc1ccc(O)cc1)C(=O)N[C@@H](CC(=O)O)C(=O)N[C@@H](CCCCN)C(=O)N[C@H](C(=O)NC(C)(C)C(=O)N[C@@H](CCC(=O)O)C(=O)N[C@@H](CCCCN)C(=O)N[C@@H](Cc1ccccc1)C(=O)N[C@@H](CCCCN)C(=O)N[C@@H](CCC(=O)O)C(=O)N[C@@H](C)C(=O)N[C@@H](Cc1ccccc1)C(N)=O)C(C)C [Compound 15] (Ac-DWFKAFYDKV[Aib]EKFKEAF-NH2) | 1.783 | 1.487 | – |
| CC(=O)N[C@@H](CC(=O)O)C(=O)N[C@@H](Cc1c[nH]c2ccccc12)C(=O)N[C@@H](Cc1ccccc1)C(=O)N[C@@H](CCCCN)C(=O)N[C@@H](C)C(=O)N[C@@H](Cc1ccccc1)C(=O)N[C@@H](Cc1ccc(O)cc1)C(=O)N[C@@H](CC(=O)O)C(=O)N[C@@H](CCCCN)C(=O)N[C@H](C(=O)N[C@@H](CCCNC(N)=O)C(=O)N[C@@H](CCC(=O)O)C(=O)N[C@@H](CCCCN)C(=O)N[C@@H](Cc1ccccc1)C(=O)N[C@@H](CCCCN)C(=O)N[C@@H](CCC(=O)O)C(=O)N[C@@H](C)C(=O)N[C@@H](Cc1ccccc1)C(N)=O)C(C)C [Compound 16] (Ac-DWFKAFYDKV[Cit]EKFKEAF-NH2) | 1.901 | 1.251 | – |
| CC(=O)N[C@@H](CC(=O)O)C(=O)N[C@@H](Cc1c[nH]c2ccccc12)C(=O)N[C@@H](CC1CCCCC1)C(=O)N[C@@H](CCCCN)C(=O)N[C@@H](C)C(=O)N[C@@H](Cc1ccccc1)C(=O)N[C@@H](Cc1ccc(O)cc1)C(=O)N[C@@H](CC(=O)O)C(=O)N[C@@H](CCCCN)C(=O)N[C@H](C(=O)N[C@@H](CC1CCCCC1)C(=O)N[C@@H](CCC(=O)O)C(=O)N[C@@H](CCCCN)C(=O)N[C@@H](Cc1ccccc1)C(=O)N[C@@H](CCCCN)C(=O)N[C@@H](CCC(=O)O)C(=O)N[C@@H](C)C(=O)N[C@@H](Cc1ccccc1)C(N)=O)C(C)C [Compound 17, [ntDAC]W[CHA]KAFYDKV[CHA]EKFKEA[ctFAD]] (Ac-DW[Cha]KAFYDKV[Cha]EKFKEAF-NH2) | – | – | solubility of 18 A variants (in words) ([1]; 18 A variants, pH 7): completely insoluble |
| HAEGTFTS[CHA]VSSYLEGQAAK[NAC]FIAWLVKGR [Compound 9] | – | – | First Run [2]: 0; Second Run [2]: 0; Ultracentrifugation [2]: 0 |
